Experimental findings from US12116357B2, “Heteroaryl-triazole and heteroaryl-tetrazole compounds as pesticides” (Bayer Aktiengesellschaft, priority 2018, dated 2024) are described below.

SMILES strings stand for the structures.

Holding throughout (assay type): in vivo
Assay [1] concerns Ctenocephalides felis. Put plainly: Ctenocephalides felis in-vitro contact test, adult cat flea. Particulars: 5 μg/cm^2, after 48 hours, read-out: efficacy (fleas dead or moribund). A digest of the protocol: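 Compound in acetone coated on glass tube walls (900 ppm solution, 5 μg/cm^2), solvent evaporated, then 5-10 adult fleas added and kept at room temperature. At 48 h, fleas put on a 45-50 °C plate for up to 5 min; those unable to climb scored dead or moribund, efficacy as % affected.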

The test system of assay [2] is Phaedon cochleariae. Put plainly: Phaedon cochleariae spray test. Particulars: 168 h, after 7 days. Put shortly: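 Chinese cabbage leaf disks sprayed with compound in acetone/DMF diluted in water with 1000 ppm alkylarylpolyglycol ether emulsifier, then infested with mustard beetle larvae once dry. Mortality (%) scored after 7 days; 100% = all larvae killed, 0% = none.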

Assay [3] relates to Spodoptera frugiperda. Put plainly: Spodoptera frugiperda spray test. Particulars: 168 h. A digest of the protocol: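 Maize leaf sections were sprayed with compound formulated in acetone/DMF and diluted in water containing 1000 ppm emulsifier, then infested with fall armyworm larvae once dry. Percent mortality was scored after 7 days.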
For assay [4], the system named is Aedes aegypti strain MONHEIM. Put plainly: Aedes aegypti test (surface treatment & contact assay). Particulars: 24 hours after contact, read-out: efficacy (mortality); for mortality at 20 mg/m2: surface concentration 20 mg/m^2, 30 min exposure. Put shortly:
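Compound dissolved in acetone (2 mg/ml) with 2000 ppm rapeseed oil methyl ester, applied to glazed tile and acetone evaporated; adult mosquitoes exposed on the dried surface for 30 min. Percent mortality scored 24 h after contact.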

Assay [5] has as its system Ctenocephalides felis. Put plainly: Ctenocephalides felis oral test. Particulars: 48 h, 100 ppm in cattle blood, after 2 days. Put shortly:
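Adult unfed cat fleas (~20) fed through parafilm on cattle blood containing compound (DMSO concentrate diluted in blood); blood held at 37° C., fleas at room temperature. Mortality (%) scored after 2 days.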

Assay [6] concerns Myzus persicae. Put plainly: Myzus persicae oral test. The following applies: 120 h. A digest of the protocol: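 Mixed-population aphids feed through parafilm on compound solution (acetone concentrate diluted with water) combined with IPL41 insect medium (33%+15% sugar). Mortality (%) read after 5 days, 100% meaning all aphids killed.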
Assay [7] relates to Culex quinquefasciatus strain P00. Put plainly: Culex quinquefasciatus test (surface treatment & contact assay). Particulars: 24 hours after contact, read-out: efficacy (mortality). The protocol:
(§1) • Solvent: Aceton+2000 ppm rapeseed oil methyl ester (RME)
In order to produce a sufficient, active ingredient containing solution it is necessary to solve the test compound in the solvent-mix (acetone at 2 mg/ml/RME 2000 ppm). This solution is pipetted onto a glazed tile and after evaporation of the acetone, adult mosquitoes of the species Culex quinquefasciatus strain P00 are placed onto the dried surface. The exposure time is 30 minutes.
(§2) Mortality in percent (%) is determined 24 hours after contact of the insects to the treated surface. 100% mortality means that all tested insects are dead, whereas 0% means that no insect died.

Assay [8] deals with Boophilus microplus. Put plainly: Boophilus microplus injection test. The following applies: Rhipicephalus microplus, 168 h, 20 μg/animal, egg deposition after 7 days, read-out: efficacy (infertile eggs). Put shortly:
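Engorged adult female ticks, five per test, received a 1 μl abdominal injection of compound in DMSO, then were kept in a climate chamber. Fertile egg deposition checked after 7 days, with unclear eggs held until hatching at about 42 days. Efficacy 100% means all eggs infertile, 0% all fertile.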

In assay [9] the test system is Musca domestica strain WHO-N. Put plainly: Musca domestica test (surface treatment & contact assay). The following applies: 24 hours after contact, read-out: efficacy (mortality); for mortality at 4 mg/m2: surface concentration 4 mg/m^2, 30 min exposure; for mortality at 20 mg/m2: surface concentration 20 mg/m^2, 30 min exposure. Put shortly: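 Test compound dissolved in acetone (2 mg/ml) with 2000 ppm RME, applied to glazed tile and acetone evaporated. Adult flies placed on dried surface for 30 min exposure. Mortality (%) scored 24 h after contact; 100% means all insects dead.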

Assay [10] deals with Blattella germanica strain PAULINIA
Put plainly: Blattella germanica test (surface treatment & contact assay). The following applies: 24 hours after contact, read-out: efficacy (mortality). The protocol: as §1
In order to produce a sufficient, active ingredient containing solution it is necessary to solve the test compound in the solvent-mix (acetone at 2 mg/ml/RME 2000 ppm). This solution is pipetted onto a glazed tile and after evaporation of the acetone, adult animals of the species Blattella germanica strain […] are placed onto the dried surface. The exposure time is 30 minutes.
as §2

Assay [11] has as its system Nilaparvata lugens. Put plainly: Nilaparvata lugens spray test. Particulars: 96 h. A digest of the protocol: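 Rice plants were sprayed with compound formulated in acetone/dimethylformamide and diluted in water containing alkylarylpolyglycol ether emulsifier, then infested with brown planthoppers. Percent mortality was scored after 4 days, where 100% means all insects killed.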

In assay [12] the test system is Meloidogyne incognita. Put plainly: Meloidogyne incognita test. The following applies: 20 ppm, after 14 days. As for the experimental part:
• Solvent: 125.0 parts by weight of acetone
To produce a suitable preparation of active compound, 1 part by weight of active compound is mixed with the stated amount of solvent, and the concentrate is diluted with water to the desired concentration.
Vessels are filled with sand, a solution of the active ingredient, a suspension containing eggs and larvae of the southern root-knot nematode (Meloidogyne incognita) and salad seeds. The salad seeds germinate and the seedlings grow. Galls develop in the roots.
After 14 days the nematicidal activity is determined on the basis of the percentage of gall formation. 100% means no galls were found and 0% means the number of galls found on the roots of the treated plants was equal to that in untreated control plants.

Assay [13] deals with Tetranychus urticae (OP-Resistant). Put plainly: Tetranychus urticae (OP-resistant) spray test. Particulars: 144 h, after 6 days. As for the experimental part:
• Solvent: 78.0 parts by weight acetone • 1.5 parts by weight dimethylformamide • Emulsifier: alkylarylpolyglycol ether
To produce a suitable preparation of active compound, 1 part by weight of active compound is mixed with the stated amount of solvents and is diluted with water, containing an emulsifier concentration of 1000 ppm, to the desired concentration. Further test concentrations are prepared by dilution with emulsifier containing water.
French bean (Phaseolus vulgaris) leaf disks infected with all instars of the two spotted spidermite (Tetranychus urticae), are sprayed with a preparation of the active ingredient of the desired concentration.
After 6 days mortality in % is determined. 100% means all spider mites have been killed and 0% means none of the spider mites have been killed.

Assay [14] relates to Nezara viridula. Put plainly: Nezara viridula spray test. The following applies: 96 h. A digest of the protocol:
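Barley plants infested with N. viridula larvae sprayed with compound in acetone/DMF diluted in water with 1000 ppm emulsifier at the desired concentration. Mortality (%) scored after 4 days; 100% means all bugs killed.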

The subject of assay [15] is cattle ticks (Boophilus microplus) strane Parhurst, SP-resistant. Put plainly: Boophilus microplus dip test. Particulars: 100 ppm, egg deposition after 7 days. The protocol:
• Test animal: cattle ticks (Boophilus microplus) strane Parhurst, SP-resistant • Solvent: dimethyl sulfoxide
To produce a suitable preparation of active compound, 10 mg of active compound are dissolved in 0.5 ml solvent, and the concentrate is diluted with water to the desired concentration.
This compound solution is pipetted into tubes. 8-10 engorged, adult, female cattle ticks (Boophilus microplus) are placed in perforated tubes. These tubes are immersed in the aqueous compound solution until the ticks are completely moistened. After the liquid has drained off, the ticks are transferred to a filter paper in a plastic tray and stored in a climate chamber.
After 7 days egg deposition of fertile eggs is monitored. Eggs where fertility is not visible are stored in a climate chamber till hatching after about 42 days. An efficacy of 100% means all eggs are infertile; 0% means all eggs are fertile.

The mark [16] stands for this setting: surface concentration 4 mg/m^2, 30 min exposure.
The mark [17] stands for this setting: surface concentration 20 mg/m^2, 30 min exposure.

The mortality is the percentage killed. For `CC(c1ncnn1-c1ncccn1)N(CCS(C)(=O)=O)C(=O)c1cc(Cl)cc(C(F)(F)F)c1` (centres unmarked) [Example I-022], in assay [1], the pest or weed control at 5 µg/cm2 amounted to 100%. For the same compound, the mortality at 500 g/ha in assay [2] and in [3] was 100% in each case. Moreover, the mortality at 4 mg/m2 lay in the range of 80 to 100% in assay [4] (setting [16]), 85 to 100% in [7] (setting [16]), 90 to 100% in [9] and 80 to 100% in assay [10] (setting [16]). The mortality at 20 mg/m2 in assay [4] was in the range of 90 to 100%; in assay [7] (setting [17]) it was 90 to 100%; in [9], 90 to 100%; in assay [10] (setting [17]) it was 80 to 100%. The same compound came in with a mortality at 100 ppm in [5] of 100%. The same compound gave a mortality at 4 ppm in assay [6] of 100%. The compound also showed a mortality at 20 ppm in assay [6] of 100%. Also, the pest or weed control at 0.02 mg in assay [8] came out at 100%.

For `CC(c1ncnn1-c1ncccn1)N(Cc1ccccn1)C(=O)c1cc(Cl)cc(C(F)(F)F)c1` (centres unmarked) [Example I-001, 3-Chloro-N-(pyridin-2-ylmethyl)-N-{1-[1-(pyrimidin-2-yl)-1H-1,2,4-triazol-5-yl]ethyl}-5-(trifluoromethyl)benzamide], the pest or weed control at 5 µg/cm2 in [1] was 100%. Also, the mortality at 500 g/ha was 90% in [11]; 100% in assay [2]; 100% in assay [3]; 95% in [13]; 100% in assay [14]. The “nematicidal activity (gall formation)” value in [12] is listed as 90%. The mortality at 20 mg/m2 in [4] and in assay [9] was 90 to 100% each time. In assay [5], the mortality at 100 ppm was found to be 100%. In addition, in assay [6], the mortality at 4 ppm was found to be 100%. In addition, the mortality at 20 ppm in assay [6] was 100%. For the same compound, in assay [8], the pest or weed control at 0.02 mg turned out to be 100%. For the same compound, the mortality at 4 mg/m2 in assay [9] lay within 90 to 100%.

For `CC(c1ncnn1-c1ncccn1)N(C(=O)c1cc(Cl)cc(C(F)(F)F)c1)C1CC1` (centres unmarked) [Example I-002], the results for the mortality at 500 g/ha in [2] and in assay [3] were 83% and 100%, respectively. In assay [12], the “nematicidal activity (gall formation)” value is 100%.

As for `CC(c1ncnn1-c1ncccn1)N(CCc1ccc(F)cc1)C(=O)c1cc(Cl)cc(C(F)(F)F)c1` (centres unmarked) [Example I-003], the mortality at 500 g/ha in assay [11], in [2], in [3] and in assay [14] was 100% throughout. Besides, the mortality at 20 mg/m2 in [4] and in assay [9] was 90 to 100% each time. The mortality at 100 ppm in assay [5] came out at 100%. The “efficacy (infertile eggs)” value in [15] came to 100%. The mortality at 4 ppm in [6] came to 100%. In assay [6], this compound showed a mortality at 20 ppm of 100%. Besides, the pest or weed control at 0.02 mg in assay [8] was found to be 100%. Besides, the mortality at 4 mg/m2 in [9] fell in the range of 90 to 100%.
